The results in this text go back to patent US12649748B2, “Wee1 inhibitor and use thereof” (JIANGSU TASLY DIYI PHARMACEUTICAL CO., LTD., priority 2021, dated 2026).

SMILES strings stand for the structures.

What all share (type): in vitro ADME
Series [1] is described as follows: Plasma protein binding (PPB), rat. As to conditions: 5 h dialysis, read-out: Plasma protein binding rate (%) Rat (converted). Here is the method: (§1) Sample preparation: The compound was dissolved in DMSO to a stock solution of 10 mM, then the compound was diluted with PBS to a secondary stock solution of 0.02 mM, and then the above 0.02 mM was diluted to 1 μM using blank plasma, which was the sample to be incubated.
(§2) Dialysis set-up preparation: 400 μL of blank PBS was first added to the white wells of the equilibrated dialysis plate and 200 μL of the configured plasma sample was added to the red wells, and the dialysis plate was sealed with a sealing film.
(§3) Recovery plate preparation: Two 96-well deep-well plates, labelled T0 and T5, were prepared and all plasma samples were added at n=2. 300 μL of acetonitrile (Verapamil-HCl, 4 ng/mL) was added directly to the TO plate, followed by 50 μL of blank PBS mix well for 5 min and left to stand in a 4° C. refrigerator until the end of the incubation.
Experimental Operation: The dialysis device and the T5 plate were incubated together for 5 h in a microplate thermostatic shaker (37° C., using 300 rpm or minimum speed). At the end of the incubation, 300 μL of acetonitrile (Verapamil-HCl, 4 ng/mL) was added and 50 μL of PBS solution was added. At the end of the dialysis incubation, a new 96-well deep well plate was taken. Add 50 μL of plasma well sample to the corresponding position of the 96-well plate, 300 μL of acetonitrile and 50 μL of blank PBS; take 50 μL of buffer well sample to the corresponding position of the 96-well plate, then add 300 μL of acetonitrile and 50 μL of blank plasma. Add 300 μL of acetonitrile (Verapamil-HCl, 4 ng/mL) to the plasma-containing wells of the T5 plate, and then 50 μL of PBS solution was added. Shake for 5 min to fully precipitate the proteins and centrifuge at 20,000 g for 10 min at 4° C. Add 200 μL of supernatant to 200 μL of pure water, mix well and perform LC-MS/MS analysis.
2. Data Processing and Parameter Calculation Plasma protein binding rate=[(Rpe−Rb)/Rpe]×100% Recovery=[(Rpe+Rb)/R5h]×100% Stability=(R5/R0)×100% where • Rpe=ratio of plasma-side testing sample peak area to internal standard • Rb=ratio of buffer side testing sample peak area to internal standard • R5=ratio of incubator stability sample peak area to internal standard • R0=ratio of refrigerator stability sample peak area to internal standard 3.

Series [2] is described as follows: Plasma protein binding (PPB), human. As to conditions: 5 h dialysis, read-out: Plasma protein binding rate (%) Human (converted). How it is done:
as §1, §2, §3
Experimental Operation: The dialysis device and the T5 plate were incubated together for 5 h in a microplate thermostatic shaker (37° C., using 300 rpm or minimum speed). At the end of the incubation, 300 μL of acetonitrile (Verapamil-HCl, 4 ng/mL) was added and 50 μL of PBS solution was added. At the end of the dialysis incubation, a new 96-well deep well plate was taken. […]

For a further series, the target named is T1, CYP2C8 (Homo sapiens, UniProt P10632).
T1 sequence (P10632 1-490): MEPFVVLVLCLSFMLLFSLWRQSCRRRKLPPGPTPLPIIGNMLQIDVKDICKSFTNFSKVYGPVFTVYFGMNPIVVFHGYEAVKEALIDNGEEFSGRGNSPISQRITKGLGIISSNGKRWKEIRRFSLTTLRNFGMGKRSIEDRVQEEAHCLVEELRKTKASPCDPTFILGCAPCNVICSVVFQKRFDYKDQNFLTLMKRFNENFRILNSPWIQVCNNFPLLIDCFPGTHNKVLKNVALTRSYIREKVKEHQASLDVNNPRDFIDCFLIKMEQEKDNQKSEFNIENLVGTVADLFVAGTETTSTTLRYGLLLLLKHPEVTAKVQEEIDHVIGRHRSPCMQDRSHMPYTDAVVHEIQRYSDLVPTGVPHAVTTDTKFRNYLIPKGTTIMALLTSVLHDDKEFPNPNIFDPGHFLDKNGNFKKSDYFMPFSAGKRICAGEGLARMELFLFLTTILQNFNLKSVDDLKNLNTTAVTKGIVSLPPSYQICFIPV
As to the kind of experiment: Inhibition of cytochrome P450, CYP2C8. As to conditions: CYP2C8 enzyme, pH 7.4, probe DBOMF, read-out: CYP inhibition/% 2C8; for inhibition at 30 min, 1 µM: compound concentration 1 μM; for inhibition at 30 min, 10 µM: compound concentration 10 μM. Here is the method:
(§4) Enzymatic experiments were performed to quantify the inhibition of CYP450 enzyme activity of each isoform of CYP450 by small molecule inhibitors through fluorescence generated by the oxidation of the substrate by cytochrome P450. […] The Solution B composition used for the experiment was: 40 U/mL G6PDH (Sigma-aldrich, Cat #G6378). The substrate mix was 0.05× Solution A, 0.01× Solution B, 50 mM Potassium Phosphate, 0.01 mM BOMCC/0.01 mM EOMCC/0.001 mM DBOMF. […] The data were analyzed and processed using GraphPad Prism 6 software to obtain IC50 values.

The next series deals with T2, CYP1A2 (Homo sapiens, UniProt P05177).
T2 sequence (P05177 1-516): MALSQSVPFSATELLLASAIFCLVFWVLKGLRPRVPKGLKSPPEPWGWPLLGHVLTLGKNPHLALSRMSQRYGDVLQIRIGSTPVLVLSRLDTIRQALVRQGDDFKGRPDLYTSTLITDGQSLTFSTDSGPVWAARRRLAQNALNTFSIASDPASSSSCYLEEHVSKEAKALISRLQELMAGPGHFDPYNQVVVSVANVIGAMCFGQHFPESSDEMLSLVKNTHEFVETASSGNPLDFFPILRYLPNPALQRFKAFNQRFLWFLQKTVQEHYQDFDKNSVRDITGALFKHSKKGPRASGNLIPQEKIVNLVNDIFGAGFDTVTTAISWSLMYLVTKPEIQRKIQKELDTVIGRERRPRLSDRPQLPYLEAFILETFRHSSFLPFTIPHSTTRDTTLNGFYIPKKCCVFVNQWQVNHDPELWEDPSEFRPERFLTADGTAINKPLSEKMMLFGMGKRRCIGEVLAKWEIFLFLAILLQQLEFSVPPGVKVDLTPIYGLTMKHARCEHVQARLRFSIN
Kind of series: Inhibition of cytochrome P450, CYP1A2. To be noted: CYP1A2 enzyme, pH 7.4, probe EOMCC, read-out: CYP inhibition/% 1A2; for inhibition at 30 min, 1 µM: compound concentration 1 μM; for inhibition at 30 min, 10 µM: compound concentration 10 μM. How it is done:
as §4

Another series has as its target CYP2C19 (Homo sapiens, UniProt P33261). Kind of series: Inhibition of cytochrome P450, CYP2C19. As to conditions: CYP2C19 enzyme, pH 7.4, probe EOMCC, read-out: CYP inhibition/% 2C19; for inhibition at 30 min, 1 µM: compound concentration 1 μM; for inhibition at 30 min, 10 µM: compound concentration 10 μM. Here is the method: as §4
Another series deals with CYP2D6 (Homo sapiens, UniProt P10635). Kind of series: Inhibition of cytochrome P450, CYP2D6. To be noted: CYP2D6 enzyme, pH 7.4, probe EOMCC, read-out: CYP inhibition/% 2D6; for inhibition at 30 min, 1 µM: compound concentration 1 μM; for inhibition at 30 min, 10 µM: compound concentration 10 μM. How it is done: as §4
Sequence of CYP2D6 (P10635 whole entry): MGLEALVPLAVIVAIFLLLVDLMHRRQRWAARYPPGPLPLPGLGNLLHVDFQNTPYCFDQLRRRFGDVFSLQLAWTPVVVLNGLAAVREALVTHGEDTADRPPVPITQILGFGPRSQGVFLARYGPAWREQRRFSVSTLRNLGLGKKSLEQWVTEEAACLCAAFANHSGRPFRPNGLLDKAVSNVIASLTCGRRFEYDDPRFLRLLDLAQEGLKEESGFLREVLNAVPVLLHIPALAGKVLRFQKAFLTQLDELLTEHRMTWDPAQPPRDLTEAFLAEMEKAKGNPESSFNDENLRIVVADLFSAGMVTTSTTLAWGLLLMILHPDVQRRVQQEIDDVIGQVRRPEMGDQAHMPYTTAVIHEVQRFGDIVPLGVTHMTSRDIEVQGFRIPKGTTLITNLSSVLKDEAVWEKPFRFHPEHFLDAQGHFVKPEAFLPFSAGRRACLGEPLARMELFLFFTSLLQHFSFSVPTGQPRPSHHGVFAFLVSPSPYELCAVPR

Sequence of CYP2C19 (P33261 whole entry): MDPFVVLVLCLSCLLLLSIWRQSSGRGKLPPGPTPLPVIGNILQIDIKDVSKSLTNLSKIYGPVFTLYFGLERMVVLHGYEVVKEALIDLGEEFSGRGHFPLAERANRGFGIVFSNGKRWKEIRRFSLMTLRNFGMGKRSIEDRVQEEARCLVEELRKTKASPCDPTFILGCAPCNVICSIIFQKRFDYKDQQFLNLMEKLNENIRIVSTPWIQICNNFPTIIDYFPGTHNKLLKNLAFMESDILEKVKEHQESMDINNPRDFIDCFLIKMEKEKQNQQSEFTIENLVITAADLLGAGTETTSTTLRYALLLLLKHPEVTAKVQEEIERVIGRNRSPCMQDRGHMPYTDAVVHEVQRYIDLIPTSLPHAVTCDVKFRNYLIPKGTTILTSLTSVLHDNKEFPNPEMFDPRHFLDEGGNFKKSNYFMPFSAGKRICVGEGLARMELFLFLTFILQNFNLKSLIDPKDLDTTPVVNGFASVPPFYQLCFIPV

Consider `Cc1cc(Nc2ncc3cnn(-c4cccc(N=S(C)(C)=O)n4)c3n2)ccc1N1CCN(C)CC1` [Compound 16], for which, in series [1], the fraction unbound at 5 h, 1 µM was 0.179.
Take `CN1CCN(c2ccc(Nc3ncc4cnn(-c5cccc(N=S(C)(C)=O)n5)c4n3)cc2)CC1` [Compound 1]: the values for the fraction unbound at 5 h, 1 µM in series [1] and in series [2] were 0.404 and 0.144, respectively. For the same compound, the inhibition at 30 min, 1 µM at CYP2C8 was -5.3%; on CYP1A2, 18.4%; at CYP2C19, 3.3%; at CYP2D6, 2.8%. Further, the inhibition at 30 min, 10 µM on CYP2C8 was 3.2%; at CYP1A2 it was 16.3%; at CYP2C19, 10.7%; at CYP2D6, 2%.
On to `CN1CCN(c2ccc(Nc3ncc4cnn(-c5cccc(C(C)(C)O)n5)c4n3)cc2)CC1` [Compound 2], for which the inhibition at 30 min, 1 µM was -11% at CYP2C8, 13.5% at CYP1A2, 3.8% at CYP2C19 and 0.3% at CYP2D6. Moreover, the inhibition at 30 min, 10 µM turned out to be 0.24% on CYP2C8, 14.2% on CYP1A2, 9.8% on CYP2C19 and 3.1% at CYP2D6.
For the compound `Cc1cc(Nc2ncc3cnn(-c4cccc(N=S(C)(C)=O)n4)c3n2)ccc1N1CCC(N(C)C)CC1` [Compound 14], in series [1], the fraction unbound at 5 h, 1 µM is 0.246.
In the case of `CS(C)(=O)=Nc1cccc(-n2ncc3cnc(Nc4ccc(N5CCOCC5)cc4)nc32)n1` [Compound 6], the inhibition at 30 min, 1 µM was -14.3% on CYP2C8, 15.5% on CYP1A2, -16.5% at CYP2C19 and -7.6% at CYP2D6. Also, the inhibition at 30 min, 10 µM at CYP2C8 was 20.9%; at CYP1A2, 23.3%; at CYP2C19, -8.3%; at CYP2D6 it was -19.4%.
Regarding `C=CCn1c(=O)c2cnc(Nc3ccc(N4CCN(C)CC4)cc3)nc2n1-c1cccc(C(C)(C)O)n1` [AZD-1775, reference compound], the fraction unbound at 5 h, 1 µM in series [1] is 0.374; in series [2], 0.36.
